Target: T1, Prostaglandin G/H synthase 2 (Homo sapiens, UniProt P35354)
T1 sequence (P35354 whole entry): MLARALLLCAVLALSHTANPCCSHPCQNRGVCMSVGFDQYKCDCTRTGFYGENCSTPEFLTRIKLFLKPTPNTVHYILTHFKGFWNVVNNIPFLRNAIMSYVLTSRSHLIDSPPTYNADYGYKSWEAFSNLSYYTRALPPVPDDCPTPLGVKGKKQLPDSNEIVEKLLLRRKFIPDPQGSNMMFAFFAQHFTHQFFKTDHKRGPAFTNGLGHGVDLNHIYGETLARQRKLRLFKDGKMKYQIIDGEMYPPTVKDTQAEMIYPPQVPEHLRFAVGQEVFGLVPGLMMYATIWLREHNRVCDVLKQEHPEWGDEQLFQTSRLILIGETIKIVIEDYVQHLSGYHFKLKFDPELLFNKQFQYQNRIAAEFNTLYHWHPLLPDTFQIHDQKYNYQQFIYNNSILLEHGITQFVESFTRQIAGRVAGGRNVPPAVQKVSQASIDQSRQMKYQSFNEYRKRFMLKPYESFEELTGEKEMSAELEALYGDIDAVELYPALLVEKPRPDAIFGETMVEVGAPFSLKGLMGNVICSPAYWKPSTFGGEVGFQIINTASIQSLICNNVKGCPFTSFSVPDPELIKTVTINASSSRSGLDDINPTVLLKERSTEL
Experiment: Inhibition of COX-2 (unknown origin) by enzyme immune assay

In the case of C=C1CC[C@@H]2[C@H](CC2(C)C)C(=C)CC[C@H]1O, the IC50 is reported as 0.088 µM.

— BindingDB's records for PubMed 34479036 (n/a, 2021)
